Source: PubChem BioAssay AID651581 (Sanford-Burnham Center for Chemical Genomics, 2012)
pIC50: −log10 of the molar value. Active and inactive are the calls of the source. How the calls were made is not given here.

Assays:
[1] = target: Endothelial PAS domain-containing protein 1 (Homo sapiens) (UniProt Q99814); test: HIF-2a and HIF-1a reporter inhibition panel, dose response, selectivity assay for HIF-2a inhibitor project, cell-based, luminescence (AID 651581)
[2] = target: Hypoxia-inducible factor 1-alpha (Homo sapiens) (UniProt Q16665); test: as above; conditions: HIF-1a
Sequence of Hypoxia-inducible factor 1-alpha (Homo sapiens) (Q16665 whole entry, looked up): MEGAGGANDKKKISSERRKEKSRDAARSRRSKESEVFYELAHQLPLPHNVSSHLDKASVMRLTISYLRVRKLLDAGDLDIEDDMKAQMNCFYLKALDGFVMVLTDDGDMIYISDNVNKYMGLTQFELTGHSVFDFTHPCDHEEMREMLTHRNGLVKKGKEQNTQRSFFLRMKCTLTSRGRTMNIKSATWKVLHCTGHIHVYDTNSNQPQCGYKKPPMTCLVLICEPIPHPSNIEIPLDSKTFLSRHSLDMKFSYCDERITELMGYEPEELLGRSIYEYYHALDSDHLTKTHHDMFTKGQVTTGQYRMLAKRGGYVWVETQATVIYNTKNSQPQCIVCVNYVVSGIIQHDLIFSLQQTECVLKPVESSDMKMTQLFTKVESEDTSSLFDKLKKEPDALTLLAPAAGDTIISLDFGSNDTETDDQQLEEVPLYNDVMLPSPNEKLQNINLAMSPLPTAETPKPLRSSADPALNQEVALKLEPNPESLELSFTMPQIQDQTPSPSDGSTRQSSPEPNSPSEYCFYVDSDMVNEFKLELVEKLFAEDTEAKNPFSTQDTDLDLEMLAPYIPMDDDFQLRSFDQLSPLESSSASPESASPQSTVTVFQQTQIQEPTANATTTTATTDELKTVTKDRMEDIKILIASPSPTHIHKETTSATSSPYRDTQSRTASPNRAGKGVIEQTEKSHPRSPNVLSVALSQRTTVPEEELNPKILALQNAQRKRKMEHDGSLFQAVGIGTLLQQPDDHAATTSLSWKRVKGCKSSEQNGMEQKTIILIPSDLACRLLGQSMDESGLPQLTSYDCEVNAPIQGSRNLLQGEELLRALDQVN

SMILES	IC50 ([1]; HIF-2a PANC, mean of runs)	pIC50 ([1]; HIF-2a PANC, run 1)	pIC50 ([1]; HIF-2a PANC, run 2)	pIC50 ([1]; HIF-2a, mean of runs)	pIC50 ([1]; HIF-2a, run 1)	pIC50 ([1]; HIF-2a, run 2)	pIC50 ([2]; mean of runs)	pIC50 ([2]; run 1)	pIC50 ([2]; run 2)	pIC50 ([1]; HIF-2a PANC, mean of runs)	IC50 ([2]; mean of runs)	IC50 ([1]; HIF-2a, mean of runs)
CN(C)S(=O)(=O)c1cccc(NC(=O)CSc2cccc3cccnc23)c1	> 99 µM (inactive)	< 4.00	< 4.00	5.27	5.28	5.25	4.46	4.51	4.42	–	–	–
COc1cccc(/C=N/Nc2ncccc2[N+](=O)[O-])c1OC	–	4.66	4.67	–	5.09	> 4.52	–	4.69	4.70	4.66	inactive	–
COC(=O)c1ccc(C(=O)OC)c(-n2c(=O)c3ccccc3c3ccccc3c2=O)c1	> 99 µM (inactive)	< 4.00	< 4.00	–	4.59	4.60	–	4.42	4.37	–	inactive	inactive
CC(=O)Nc1ccc(OC(=O)N2CCCCC2)cc1	–	5.71	5.44	5.63	5.63	5.63	4.94	4.94	4.95	5.55	–	–
CCOC(=O)c1cccc(NC(=O)/C=C/c2ccc3c(c2)OCO3)c1	–	4.37	< 4.00	–	4.73	4.83	–	4.59	4.56	–	inactive	inactive
O=C(O)c1cccc(C(=O)Nc2cccc(NC(=O)C3CCCO3)c2)c1 (stereo not given)	> 99 µM (inactive)	< 4.00	< 4.00	–	4.51	4.57	–	< 4.00	< 4.00	–	–	inactive
S=C(c1ccc(-c2ccccc2)cc1)N1CCOCC1	–	5.60	5.51	5.97	6.01	5.94	–	5.83	5.60	5.55	inactive	–
CCS(=O)(=O)c1ncc(Cl)c(C(=O)Nc2ccc(C)cc2)n1	–	4.52	4.51	–	4.97	5.01	–	4.62	4.70	4.52	inactive	inactive
Cc1cc(NC(=O)c2ccccc2)c(Cl)cc1N	inactive	4.99	4.71	5.56	5.59	5.53	4.94	5.00	4.89	–	–	–
C=C1C(=O)OC2CC3(C)OC3C3OC3C3=CC(OC3=O)C12 (stereo not given)	–	< 4.00	4.22	–	4.94	4.99	4.44	4.47	4.41	–	–	inactive
CC(=O)N/N=C\c1cccc(OC/C=C/c2ccccc2)c1	> 99 µM (inactive)	< 4.00	< 4.00	> 5.00	> 5.00	> 4.52	–	< 4.00	< 4.00	–	–	–
CC(=O)Nc1ccc(NC(=O)c2oc3cc(C)c(C)cc3c2C)cc1	–	< 4.00	4.78	5.79	5.79	5.78	–	5.54	5.78	–	inactive	–
O=C(O)c1ccc2nc(-c3ccccc3)sc2c1	–	4.90	4.99	–	> 4.52	< 4.00	–	4.58	4.64	4.94	inactive	–
